Laboratory results taken from US20220339249A1, “COMPOSITE BIOMARKER FOR CANCER THERAPY” (Bristol-Myers Squibb Company, priority 2019, published 2022).

Key:
[1] = monotherapy, every two weeks; MTD not reached; cited from earlier work
tumors = assay: Response to nivolumab monotherapy (CheckMate trials) by TDO2 expression; assay type: in vivo, human; conditions: immuno-oncology naïve patients
Procedure: TDO2 expression was determined by median. All tumors are […] from the biomarker cohort (Clinical Trial No. NCT02658890). Nivolumab monotherapy data is from CheckMate trials. NE=not evaluable; PD=progressive disease; PR=partial response; SCCHN=squamous cell carcinoma of the head and neck; SD=stable disease; TDO2=tryptophan 2,3-dioxygenase 2.
Therefore, the association between TDO2 expression and clinical response was evaluated. High or low TDO2 expression levels were determined by the median. Based on the objective response rate, 26% of patients with low TDO2 expression responded to treatment while only 13% of patients with high TDO2 expression responded to treatment (TABLE 4).

TDO2 = TDO2 (Homo sapiens, UniProt P48775); conditions: cited from earlier work
TDO2, sequence (P48775 whole entry): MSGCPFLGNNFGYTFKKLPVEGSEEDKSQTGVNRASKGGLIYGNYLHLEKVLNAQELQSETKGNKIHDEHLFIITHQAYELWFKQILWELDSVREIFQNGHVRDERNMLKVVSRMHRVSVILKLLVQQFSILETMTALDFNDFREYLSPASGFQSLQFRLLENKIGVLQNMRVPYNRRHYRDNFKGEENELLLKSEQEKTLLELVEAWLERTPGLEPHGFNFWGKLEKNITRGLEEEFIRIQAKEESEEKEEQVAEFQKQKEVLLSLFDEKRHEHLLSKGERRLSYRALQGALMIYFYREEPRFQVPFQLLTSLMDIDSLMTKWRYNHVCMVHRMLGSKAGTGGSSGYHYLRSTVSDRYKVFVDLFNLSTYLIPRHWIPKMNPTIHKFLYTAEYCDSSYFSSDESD

| Compound | maximum tolerated dose (MTD) [1] | association between TDO2 expression and response (tumors) | inhibition of TDO2 enzymatic activity (TDO2) |
| --- | --- | --- | --- |
| nivolumab | > 10 mg/kg | No association |  |
| C[C@@H](C(=O)Nc1ccc(Cl)cc1)[C@H]1CC[C@@H](c2ccnc3ccc(F)cc32)CC1 [linrodostat, (2R)—N-(4-chlorophenyl)-2-(cis-4-(6-fluoroquinolin-4-yl)cyclohexyl)propanamide] |  |  | not TDO2 enzymatic activity |
